Patent publication US8247211B2, “Glycopeptide antibiotics” (American Cyanamid Company, priority 2001, dated 2012)
Converted amounts (≈) assume the structure as drawn.

Legend:
Assay in all cases: In vitro antibacterial evaluation: minimum inhibitory concentration (MIC), broth dilution method
Type in all cases: cell-based
Streptococcus sp. = test system: Streptococcus sp.
Procedure, shortened: (§1)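 NCCLS M7-A2 broth dilution; Muller-Hinton II […]; 5×10^5 CFU/mL; 64-0.06 μg/mL. MIC = lowest concentration with no growth.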

Staphylococcus sp. = details: broth dilution, 18 hours at 35° C.
Procedure, shortened: as §1

Escherichia coli = test system: Escherichia coli
Procedure, shortened: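 Susceptibility determined by NCCLS-recommended broth dilution (M7-A2), Muller-Hinton II […]. Concentration span 64-0.06 μg/mL, inoculum 5×10^5 CFU/mL. Isolates include strains resistant to methicillin, penicillin and/or vancomycin.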

Enterococcus sp. = test system: Enterococcus sp.
Procedure, shortened: as §1

[1] = broth dilution, inoculum 5×10^5 CFU/mL, 18 hours at 35° C.

CC(c1ccccc1)C1NC(=O)CNC(=O)C(CO)NC(=O)C(C(O)C2CNC(=N)N2C2OC(CO)C(O)C(O)C2O)NC(=O)C(C(O)C2CNC(=N)N2)NC(=O)C(Cc2ccc(OC3OC(CO)C(OC4OC(CO)C(O)C5OC(c6ccc(-c7ccsc7)cc6)OC45)C(O)C3O)cc2)NC1=O (stereo not drawn) [Example 164a, Cyclo[glycyl-β-methylphenylalanyl-O-[4-O-[2,3-O-[4-(3-thienyl)benzylidene]hexopyranosyl]-hexopyranosyl]tyrosyl-3-(2-iminoimidazolidin-4-yl)seryl-3-(3-hexopyranosyl-2-iminoimidazolidin-4-yl)serylseryl]]
MIC Streptococcus agalactiae (GC 4564) (Streptococcus sp.; [1]): 1 µg/mL (≈ 0.682 µM)
MIC Streptococcus pneumoniae (ATCC 6301) (Streptococcus sp.; [1]): 1 µg/mL (≈ 0.682 µM)
MIC Streptococcus pneumoniae (GC 1894) (Streptococcus sp.; [1]): 0.25 µg/mL (≈ 0.171 µM)
MIC Streptococcus pneumoniae (GC 4565) (Streptococcus sp.; [1]): 1 µg/mL (≈ 0.682 µM)
MIC Streptococcus pyogenes (GC 4563) (Streptococcus sp.; [1]): 0.5 µg/mL (≈ 0.341 µM)
MIC Streptococcus pneumoniae (ATCC 6301) (Streptococcus sp.; strain ATCC 6301): 1 µg/mL (≈ 0.682 µM)
MIC Streptococcus pneumoniae (GC 1894) (Streptococcus sp.; strain GC 1894): 0.25 µg/mL (≈ 0.171 µM)
MIC Streptococcus pyogenes (GC 4563) (Streptococcus sp.; strain GC 4563): 0.5 µg/mL (≈ 0.341 µM)
MIC Streptococcus agalactiae (GC 4564) (Streptococcus sp.; strain GC 4564): 1 µg/mL (≈ 0.682 µM)
MIC Streptococcus pneumoniae (GC 4565) (Streptococcus sp.; strain GC 4565): 1 µg/mL (≈ 0.682 µM)
MIC Coagulase Negative Staphylococcus (GC 4547) (Staphylococcus sp.; 5×10^5 CFU/mL): 8 µg/mL (≈ 5.46 µM)
MIC Coagulase Negative Staphylococcus (GC 4548) (Staphylococcus sp.; 5×10^5 CFU/mL): 4 µg/mL (≈ 2.73 µM)
MIC Coagulase Negative Staphylococcus (GC 4549) (Staphylococcus sp.; 5×10^5 CFU/mL): 4 µg/mL (≈ 2.73 µM)
MIC Coagulase Negative Staphylococcus (GC 4551) (Staphylococcus sp.; 5×10^5 CFU/mL): 8 µg/mL (≈ 5.46 µM)
MIC Coagulase Negative Staphylococcus (GC 6257) (Staphylococcus sp.; 5×10^5 CFU/mL): 4 µg/mL (≈ 2.73 µM)
MIC Staphylococcus aureus (ATCC 29213) (Staphylococcus sp.; 5×10^5 CFU/mL): 8 µg/mL (≈ 5.46 µM)
MIC Staphylococcus aureus (GC 1131) (Staphylococcus sp.; 5×10^5 CFU/mL): 8 µg/mL (≈ 5.46 µM)
MIC Staphylococcus aureus (GC 3051) (Staphylococcus sp.; 5×10^5 CFU/mL): 8 µg/mL (≈ 5.46 µM)
MIC Staphylococcus aureus (GC 3053) (Staphylococcus sp.; 5×10^5 CFU/mL): 8 µg/mL (≈ 5.46 µM)
MIC Staphylococcus aureus (GC 4541) (Staphylococcus sp.; 5×10^5 CFU/mL): 8 µg/mL (≈ 5.46 µM)
MIC Staphylococcus aureus (GC 4542) (Staphylococcus sp.; 5×10^5 CFU/mL): 16 µg/mL (≈ 10.9 µM)
MIC Staphylococcus aureus (GC 4544) (Staphylococcus sp.; 5×10^5 CFU/mL): 8 µg/mL (≈ 5.46 µM)
MIC Staphylococcus aureus (GC 4545) (Staphylococcus sp.; 5×10^5 CFU/mL): 8 µg/mL (≈ 5.46 µM)
MIC Staphylococcus aureus-SMITH (GC 4543) (Staphylococcus sp.; 5×10^5 CFU/mL): 8 µg/mL (≈ 5.46 µM)
MIC Staphylococcus haemolyticus (GC 4546) (Staphylococcus sp.; 5×10^5 CFU/mL): 4 µg/mL (≈ 2.73 µM)
MIC Staphylococcus aureus (ATCC 29213) (Staphylococcus sp.; strain ATCC 29213): 8 µg/mL (≈ 5.46 µM)
MIC Staphylococcus aureus (GC 1131) (Staphylococcus sp.; strain GC 1131): 8 µg/mL (≈ 5.46 µM)
MIC Staphylococcus aureus (GC 3051) (Staphylococcus sp.; strain GC 3051): 8 µg/mL (≈ 5.46 µM)
MIC Staphylococcus aureus (GC 3053) (Staphylococcus sp.; strain GC 3053): 8 µg/mL (≈ 5.46 µM)
MIC Staphylococcus aureus (GC 4541) (Staphylococcus sp.; strain GC 4541): 8 µg/mL (≈ 5.46 µM)
MIC Staphylococcus aureus (GC 4542) (Staphylococcus sp.; strain GC 4542): 16 µg/mL (≈ 10.9 µM)
MIC Staphylococcus aureus-SMITH (GC 4543) (Staphylococcus sp.; strain GC 4543): 8 µg/mL (≈ 5.46 µM)
MIC Staphylococcus aureus (GC 4544) (Staphylococcus sp.; strain GC 4544): 8 µg/mL (≈ 5.46 µM)
MIC Staphylococcus aureus (GC 4545) (Staphylococcus sp.; strain GC 4545): 8 µg/mL (≈ 5.46 µM)
MIC Staphylococcus haemolyticus (GC 4546) (Staphylococcus sp.; strain GC 4546): 4 µg/mL (≈ 2.73 µM)
MIC Coagulase Negative Staphylococcus (GC 4547) (Staphylococcus sp.; strain GC 4547): 8 µg/mL (≈ 5.46 µM)
MIC Coagulase Negative Staphylococcus (GC 4548) (Staphylococcus sp.; strain GC 4548): 4 µg/mL (≈ 2.73 µM)
MIC Coagulase Negative Staphylococcus (GC 4549) (Staphylococcus sp.; strain GC 4549): 4 µg/mL (≈ 2.73 µM)
MIC Coagulase Negative Staphylococcus (GC 4551) (Staphylococcus sp.; strain GC 4551): 8 µg/mL (≈ 5.46 µM)
MIC Coagulase Negative Staphylococcus (GC 6257) (Staphylococcus sp.; strain GC 6257): 4 µg/mL (≈ 2.73 µM)
MIC Escherichia coli (ATCC 25922) (Escherichia coli; strain ATCC 25922): 32 µg/mL (≈ 21.8 µM)
MIC Escherichia coli (GC 4559) (Escherichia coli; strain GC 4559): 32 µg/mL (≈ 21.8 µM)
MIC Escherichi coli (GC 4560) (Escherichia coli; strain GC 4560): 8 µg/mL (≈ 5.46 µM)
MIC Enterococcus avium (GC 4558) (Enterococcus sp.; [1]): 8 µg/mL (≈ 5.46 µM)
MIC Enterococcus faecalis (ATCC 29212) (Enterococcus sp.; [1]): 16 µg/mL (≈ 10.9 µM)
MIC Enterococcus faecalis (GC 2242) (Enterococcus sp.; [1]): 16 µg/mL (≈ 10.9 µM)
MIC Enterococcus faecalis (GC 2691) (Enterococcus sp.; [1]): 16 µg/mL (≈ 10.9 µM)
MIC Enterococcus faecalis (GC 3059) (Enterococcus sp.; [1]): 16 µg/mL (≈ 10.9 µM)
MIC Enterococcus faecalis (GC 4552) (Enterococcus sp.; [1]): 16 µg/mL (≈ 10.9 µM)
MIC Enterococcus faecalis (GC 4553) (Enterococcus sp.; [1]): 16 µg/mL (≈ 10.9 µM)
MIC Enterococcus faecalis (GC 4554) (Enterococcus sp.; [1]): 16 µg/mL (≈ 10.9 µM)
MIC Enterococcus faecalis (GC 6189) (Enterococcus sp.; [1]): 16 µg/mL (≈ 10.9 µM)
MIC Enterococcus faecium (GC 2243) (Enterococcus sp.; [1]): 8 µg/mL (≈ 5.46 µM)
MIC Enterococcus faecium (GC 4556) (Enterococcus sp.; [1]): 16 µg/mL (≈ 10.9 µM)
MIC Enterococcus faecium (GC 4557) (Enterococcus sp.; [1]): 4 µg/mL (≈ 2.73 µM)
MIC Enterococcus faecalis (ATCC 29212) (Enterococcus sp.; strain ATCC 29212): 16 µg/mL (≈ 10.9 µM)
MIC Enterococcus faecalis (GC 2242) (Enterococcus sp.; strain GC 2242): 16 µg/mL (≈ 10.9 µM)
MIC Enterococcus faecium (GC 2243) (Enterococcus sp.; strain GC 2243): 8 µg/mL (≈ 5.46 µM)
MIC Enterococcus faecalis (GC 2691) (Enterococcus sp.; strain GC 2691): 16 µg/mL (≈ 10.9 µM)
MIC Enterococcus faecalis (GC 3059) (Enterococcus sp.; strain GC 3059): 16 µg/mL (≈ 10.9 µM)
MIC Enterococcus faecalis (GC 4552) (Enterococcus sp.; strain GC 4552): 16 µg/mL (≈ 10.9 µM)
MIC Enterococcus faecalis (GC 4553) (Enterococcus sp.; strain GC 4553): 16 µg/mL (≈ 10.9 µM)
MIC Enterococcus faecalis (GC 4554) (Enterococcus sp.; strain GC 4554): 16 µg/mL (≈ 10.9 µM)
MIC Enterococcus faecium (GC 4556) (Enterococcus sp.; strain GC 4556): 16 µg/mL (≈ 10.9 µM)
MIC Enterococcus faecium (GC 4557) (Enterococcus sp.; strain GC 4557): 4 µg/mL (≈ 2.73 µM)
MIC Enterococcus avium (GC 4558) (Enterococcus sp.; strain GC 4558): 8 µg/mL (≈ 5.46 µM)
MIC Enterococcus faecalis (GC 6189) (Enterococcus sp.; strain GC 6189): 16 µg/mL (≈ 10.9 µM)
